These results are taken from US6143509A, “Prostate specific antigen peptides and uses thereof” (Abbott Laboratories, priority 1996, dated 2000).

For experiment [1], the system named is goat anti-PSA antiserum. Briefly: Direct ELISA with alkaline phosphatase-labeled goat anti-PSA antiserum. The settings on record: peptides coated on microtiter plates; FIG. 4. The class given is binding. The text has this:
Synthetic peptides were also screened by a direct ELISA assay format which utilized a goat anti-PSA antiserum conjugated to alkaline phosphatase. In particular, peptides were coated on microtiter plates and detected by enzyme-labelled anti-PSA polyclonal antibodies. The goat anti-PSA antiserum was produced by immunization with free PSA. […] In addition to those epitopes identified by mAbs as described above, two new epitopes, ABT2 and ABT7, were identified by the anti-PSA antiserum.
In general terms: In an ELISA, binding on a coated surface is turned into a signal by an enzyme label.

In experiment [2] the test system is known anti-PSA monoclonal antibodies. Description: Binding to known anti-PSA monoclonal antibodies (summary). The settings on record: summary statement. On the procedure: (§1) An indirect ELISA assay was used to determine the reactivity and specificity of anti-PSA mAbs and pAbs. For the assay, 96 well microtiter plates (Costar, Cambridge, MA) were coated with PSA (0.5 micrograms/well, Abbott Laboratories, in house product, code# 91969, purified from seminal fluid) or peptides (0.1 mg/well) in 0.1 M carbonate-bicarbonate buffer (pH 9.0) overnight at 4° C. The plates were blocked with 1% BSA in PBS buffer (0.008 M sodium phosphate, 0.002M potassium phosphate, 0.14 M sodium chloride and 0.01M potassium chloride, pH 7.4) for 1 hour, then anti-PSA mAbs or pAbs (100 microliters/well) at varying dilutions were added. After incubation for 1 hour at 25° C., the wells were washed with PBS buffer containing 0.5% Tween 20, then 100 microliters/well of alkaline phosphatase-conjugated antibody (goat anti-mouse IgG or goat anti-rabbit IgG--from Pierce, Rockford, IL) at 5000 fold dilution was added and incubation continued for 1-2 hr at 25° C. After washing, 100 microliters/well of p-nitrophenyl phosphate substrate (Pierce, Rockford, Ill.) was added and the absorbance was measured at 405 nm using an automated microtiter plate reader (Molecular Devices Corp. Menlo Oaks, Calif.).
(§2) (A). Two-site combinations of capture antibody and Europium chelate (Eu)-labeled antibody was used to determine the inhibition of mAbs binding to PSA by the synthetic peptides derived from PSA. Briefly, free PSA (0.05 pmol/well, Wallac, O Y, Turku, Finland) in 0.100 mL of Delfia® buffer (Wallac, O Y) (i.e., a blocking buffer containing 50 mM Tris-HCl (pH 7.75), 0.9% NaCl, 0.05% Na-azide, 0.01% Tween 40, 0.05% bovine-gammaglobulin, 20 μM DTPA, 0.5% BSA, 10 μg/mL native mouse IgG, 5 μg/mL denatured mouse IgG and 20 μg/mL cherry red) was added to microtiter wells coated with the various anti-PSA antibodies being used for capture (1-2 μg/well of antibody) and incubated for 1 hour at 25° C. (Free or total antibodies may be used.) After washing with Delfia® wash solution, peptides (62,500-1,000,000 molar excess to PSA) in 25 mL Delfia® buffer were added together with the Europium chelate-labeled anti-PSA antibody (0.05 pmol), and incubation was continued for 1 hour at 25°0 C. After another four washings, the amount of bound Eu-labeled antibody was determined with time-resolved fluorometry previously described (Pettersson et al., Clin. Chem. 41:1480-88 (1995) & Hemmilia et al., Anal. Biochem. 137:335-43 (1984)).
(§3) (B). […] After another four washings, 100 μl/well of p-nitrophenyl phosphate substrate (Pierce Chemical Co., Rockford, Ill.) was added and the absorbance was measured at 405 nm using an automated microtiter plate reader.

Experiment [3] relates to mAb 2C1. Description: Competitive immunoassay: inhibition of total PSA specific mAb binding to PSA. The settings on record: FIG. 3A. The method, then: as §2, with “(Free or total antibodies may be used.) After washing with Delfia® wash solution, peptides (62,500-1,000,000 molar excess to PSA) in 25 mL Delfia® buffer were added together with the Europium chelate-labeled anti-PSA antibody (0.05 pmol), and incubation was continued for 1 hour at 25°0 C.” left out
as §3

The test system of experiment [4] is mAb H164. The experiment is described as above. The settings on record: FIG. 3A. The method, then:
as §2, with “(Free or total antibodies may be used.) After washing with Delfia® wash solution, peptides (62,500-1,000,000 molar excess to PSA) in 25 mL Delfia® buffer were added together with the Europium chelate-labeled anti-PSA antibody (0.05 pmol), and incubation was continued for 1 hour at 25°0 C.” left out
as §3

In experiment [5] the test system is mAb H164. Description: Indirect ELISA, binding specificity of mAb H164. The settings on record: FIG. 3C. On the procedure: as §1
Experiment [6] concerns rabbit anti-ABT4 antiserum. Briefly: Indirect ELISA, reactivity and specificity of anti-ABT4 antiserum. The class given is binding. Particulars: FIG. 6, relative affinity ABT4 >PSA >hK2a. On the procedure: as §1, with “After incubation for 1 hour at 25° C., the wells were washed with PBS buffer containing 0.5% Tween 20, then 100 microliters/well of alkaline phosphatase-conjugated antibody (goat anti-mouse IgG or goat anti-rabbit IgG--from Pierce, Rockford, IL) at 5000 fold dilution was added and incubation continued for 1-2 hr at 25° C.” left out, “Calif.). […]” for “Calif.).”
The reactivity and specificity of Anti-ABT4 antiserum were evaluated by estimating the relative binding affinities (Wang et al., […] 39:1-5 (1982)) for PSA, PSA peptide ABT4 and hK2 peptide (hK2a) as described in Example I. The indirect ELISA assay format described in Section C-I of Example I was used for these studies and the data are shown in FIG. 6. […]

The nature of experiment [7]: Immunization of rabbits with peptide coupled to KLH. The class given is in vivo. Particulars: FIG. 5 / FIG. 6. The text has this: Antiserum was elicited by immunizing rabbits with PSA peptide ABT6 coupled to the carrier protein KLH (keyhole limpet hemocyanin) at Bio-Synthesis, Inc. (Lewisville, Tex.) using standard commercially available techniques.
Anti-ABT4 antiserum was elicited by immunizing two rabbits with PSA peptide ABT4 coupled to the carrier protein KLH at Bio-Synthesis, Inc.(Lewisville,Tex.).

Experiment [8] deals with mAb 2E9. Briefly: Indirect ELISA, binding specificity of mAb 2E9. Particulars: FIG. 2B. On the procedure: as §1
Experiment [9] relates to rabbit anti-ABT6 antiserum. Description: Indirect ELISA, reactivity and specificity of anti-ABT6 antiserum. The class given is binding. The settings on record: FIG. 5. The method, then:
as §1, with “After incubation for 1 hour at 25° C., the wells were washed with PBS buffer containing 0.5% Tween 20, then 100 microliters/well of alkaline phosphatase-conjugated antibody (goat anti-mouse IgG or goat anti-rabbit IgG--from Pierce, Rockford, IL) at 5000 fold dilution was added and incubation continued for 1-2 hr at 25° C.” left out, “Calif.). […]” for “Calif.).”
The reactivity and specificity of antiserum anti-ABT6 was evaluated by estimating the relative binding affinities (Wang et al., Urology 39:1-5 (1982)) for PSA, PSA peptide ABT6 and hK2 peptide hK2b as described in Example I. The indirect ELISA format described in Section C-I of Example 1 was used for these studies and the data are shown in FIG. 5.

In experiment [10] the test system is mAb 30:5. Description: Competitive immunoassay: inhibition of mAb binding to PSA by synthetic peptides. The settings on record: inhibition studies. The method, then: as §2
Experiment [11] concerns mAb 6:3. The description is as above. Particulars: inhibition studies. On the procedure: as §2
The test system of experiment [12] is mAb 9B10 (specific for free PSA). The experiment is described as above. On the procedure:
as §2

Experiment [13] relates to mAb 2E9. Described as above. The settings on record: competitive immunoassay section C-II-A; FIG. 2A. The method, then:
as §2

For experiment [14], the system named is mAb 5A10 (specific for free PSA). Described as above. Particulars: competitive immunoassay section C-II-A; FIG. 2A. On the procedure:
as §2

Experiment [15] deals with mAb H68. The description is as above. The settings on record: competitive immunoassay section C-II-A; FIG. 2A. On the procedure: as §2

For “CWGSIEPEEFLTPKKLC [ABT2, synthetic PSA peptide]”, in experiment [1], the “epitope identified by goat anti-PSA antiserum” value was “identified”. The “binding to several known anti-PSA monoclonal antibodies” value in experiment [2] is “specific binding”.

As for CLLGRHSLFHPEDTGQC [ABT4], the “inhibition of PSA binding to mAb 2C1” value in [3] is given as 80%. The “inhibition of PSA binding to mAb H164” value in experiment [4] came to 90%. For the same substance, the “binding of mAb H164 to coated peptide or PSA” value in [5] is “bound specifically”. Moreover, the “binding of anti-ABT4 antiserum (relative binding affinity)” value in [6] is listed as “binds”. Besides, the “binding to several known anti-PSA monoclonal antibodies” value in [2] was “specific binding”. Besides, in [7], the “immunogenicity (ability to elicit antibodies)” value is given as “immunogenic”.

With “PSA: Prostate specific antigen, Abbott Laboratories in house product, purified from seminal fluid”, in [8], the “binding of mAb 2E9 to coated peptide or PSA” value is “specific binding”. For the same substance, the “binding of mAb H164 to coated peptide or PSA” value in [5] is given as “bound specifically”. Further, the “binding of anti-ABT6 antiserum (relative binding affinity)” value in [9] is “high affinity”. The “binding of anti-ABT4 antiserum (relative binding affinity)” value in [6] was “binds”.

For “CNRFLRPGDDSSC [ABT1, synthetic PSA peptide; short version of ABT6]”, in [10], the “inhibition of mAb 30:5” value was found to be 50%. Besides, the “inhibition of mAb 6:3” value in experiment [11] came to 23%. The “inhibition of mAb 9B10” value in experiment [12] (inhibition studies) was 40%. The “binding to several known anti-PSA monoclonal antibodies” value in experiment [2] is given as “specific binding”.

On to CMSLLKNRFLRPGDDSC [ABT6], for which, in [13], the “binding to mAb 2E9” value is reported as “selectively bound”. Besides, the “binding to mAb 5A10” value in experiment [14] was “specific binding”. In [12] (competitive immunoassay section C-II-A, FIG. 2A), the “binding to mAb 9B10” value is “specific binding”. In addition, in [15], the “binding to mAb H68” value was “selectively bound”. Besides, the “binding of mAb 2E9 to coated peptide or PSA” value in experiment [8] is reported as “specific binding”. Besides, the “binding of anti-ABT6 antiserum (relative binding affinity)” value in experiment [9] is “high affinity”. The “binding to several known anti-PSA monoclonal antibodies” value in experiment [2] is recorded as “specific binding”. Moreover, in experiment [7], the “immunogenicity (ability to elicit antibodies)” value is “immunogenic”.
